Experimental data published in patent publication US10898434B2, “Single-walled carbon nanotube-assisted antibiotic delivery and imaging techniques” (Texas Christian University, priority 2018, dated 2021).

Legend:
Assay type in all cases: cell-based, Staphylococcus epidermidis
S. epidermidis [1] = assay: Turbidity assay (absorption at 600 nm); details: serial dilution, 24 h at 37° C.
Method: A serial dilution (using the factor of 2) of antibacterial solutions was conducted in 12-well plates starting with 200 μL of antibacterial solution was placed in first well. 850 μl of broth and 50 μl of bacterial broth were added to each well plate. The concentrations tested for doxycycline were 1, 0.5, 0.25, 0.125 and 0 mg/mL. The concentrations tested for methicillin are 1.25, 0.625,0.313, […] and 0 mg/mL. Plates were that incubated at 37° C. for 24 h. The solutions were transferred to cuvettes, and their turbidity is measured using a Cary 500 spectrophotometer with the broth used as a baseline. Two wells were prepared for each concentration.

S. epidermidis [2] = assay: Disk diffusion (zone inhibition) assay; details: 2 and 4 mg doses; compared to non-treatment control; 24 h at 37° C.
Method: S. epidermidis broth of McFarland 0.5 standard (absorption of 0.08 to 0.1) was created using Mueller Hilton Broth. This standard stabilized the cell count at an approximate 1×10^8 CFU/mL Dilution was plated within 15 minutes of standardization. Following the proper aseptic techniques, 0.2 mL of bacterial broth was placed in the center of prepared agar dish. A sterile bacteria spreader was used to evenly spread the bacteria throughout the plate to create a lawn.
Two different dosages of the antibacterial solutions were tested to increase the breadth and reliability of data. […] Petri dishes are incubated for 24 h at 37° C., then the zones of inhibition were measured with the inclusion of disk diameter in the measurements.
The statistical analysis performed in this work confirm the significance of the observed results for diffusion discs performed at different amounts of SWCNT/antibiotic complex loaded onto discs. […] When the p-value of the analysis is lower than the confidence level chosen, the hypothesis is proven false and a significant difference and variation is detected.
The dataset is analyzed using a comparison of means function by assigning a mean of the control group and comparing it to the means of each of the treatment groups. […]

S. epidermidis [3] = assay: Colony count (colony formation) assay; details: 100 μl stock solution, 24 h at 37° C.
Method: Using S. epidermidis broth (McFarland 0.5 standard), 100 μl was placed in the center of the agar plate. 100 μl of the respective antibacterial stock solution is added to the center. Bacteria was spread through the Petri dish and the plates were further incubated for 24 h at 37° C. Pictures of the plates were uploaded onto the OpenCFU software to count the number of colonies grown on the plate. Two plates were prepared for each antibacterial treatment with corresponding controls.

COc1cccc(OC)c1C(=O)N[C@@H]1C(=O)N2[C@@H]1SC(C)(C)[C@@H]2C(=O)O [methicillin]
turbidity of bacterial media (absorption at 600 nm) (S. epidermidis [1]): some bacterial inhibition | antibacterial effect (zone of inhibition) of antibiotic alone (S. epidermidis [2]): no antibiotic activity | colony count (in words) (S. epidermidis [3]): complete lack of inhibition response
